# Data: patent US11136349
# Where two headings read alike, the source gives them in different places.
# Details: other bond
molecule,measurement,setting,value
CC(C)CC1CCC(=O)N[C@@H](Cc2ccccc2)C(=O)N[C@@H](CC(C)C)C(=O)N[C@@H](C)C(=O)N[C@@H](Cc2ccccc2)C(=O)N1C (stereo partly drawn) [cyclo-[(Me)Aba(4-iBu)-Phe-Leu-Ala-Phe]],"ring closure, conversion","from acryloyl-Phe-Leu-Ala-Phe-MeLeu-OH, 17-membered ring, Ir[dF(CF3)ppy]2(dtbbpy)PF6/K2HPO4/blue LED, DMF, 5.0 mM",77%
CC(C)C[C@@H]1NC(=O)[C@H](Cc2ccccc2)NC(=O)C(c2ccccc2)CCNC(=O)[C@H](Cc2ccccc2)NC(=O)[C@H](C)NC1=O (stereo partly drawn) [cyclo-[Aba(2-Ph)-Phe-Le-Ala-Phe]],"ring closure, conversion","from α-phenylacryloyl-Phe-Leu-Ala-Phe-Gly-OH, 17-membered ring, Ir[dF(CF3)ppy]2(dtbbpy)PF6/K2HPO4/blue LED, DMF, 2.5 mM",95%
CC(C)C[C@@H]1NC(=O)[C@H](Cc2ccc(OC(C)(C)C)cc2)NC(=O)[C@H](C(C)C)NC(=O)[C@H]([C@@H](C)OC(C)(C)C)NC(=O)[C@H](C)NC(=O)[C@@H]2CCCN2C(=O)[C@H](CC(C)C)NC(=O)[C@H](Cc2ccccc2)NC(=O)[C@H](C)NC(=O)CCCNC1=O [cyclo-[Aba-Ala-Phe-Leu-Pro-Ala-Thr(tBu)-Val-Tyr(tBu)-Leu]],"ring closure, conversion","from acryloyl-Ala-Phe-Leu-Pro-Ala-Thr(tBu)-Val-Tyr(tBu)-Leu-Gly-OH, 32-membered ring, Ir[dF(CF3)ppy]2(dtbbpy)PF6/K2HPO4/blue LED, DMF, 2.5 mM",64%
CC(C)[C@@H]1NC(=O)[C@H](Cc2ccc(OC(C)(C)C)cc2)NC(=O)[C@H](C)N(C)C(=O)[C@H](Cc2ccccc2)NC(=O)CCCNC1=O [cyclo-[Aba-Phe-(Me)Ala-Tyr(tBu)-Val]],"ring closure, conversion","from acryloyl-Phe-MeAla-Tyr(tBu)-Val-Gly-OH, 17-membered ring, Ir[dF(CF3)ppy]2(dtbbpy)PF6/K2HPO4/blue LED, DMF, 5.0 mM",66%
CC(C)C[C@@H]1NC(=O)[C@H](CCC(=O)NC(c2ccccc2)(c2ccccc2)c2ccccc2)NC(=O)[C@H](Cc2ccccc2)NC(=O)CCCNC(=O)[C@H](CCCCNC(=O)OC(C)(C)C)NC1=O [cyclo-[Aba-Phe-Gln(Trt)-Leu-Lys(Boc)]],"ring closure, conversion","from acryloyl-Phe-Gln(Trt)-Leu-Lys(Boc)-Gly-OH, 17-membered ring, Ir[dF(CF3)ppy]2(dtbbpy)PF6/K2HPO4/blue LED, DMF, 2.5 mM",94%
CC(C)C[C@@H]1NC(=O)[C@H](Cc2ccccc2)NC(=O)CCCNC(=O)[C@H](Cc2ccc(Br)cc2)NC(=O)[C@H](C)NC1=O [cyclo-[Aba-Phe-Leu-Ai-Phe(4-Br)]],"ring closure, conversion","from acryloyl-Phe-Leu-Ala-Phe(4-Br)-Gly-OH, 17-membered ring, Ir[dF(CF3)ppy]2(dtbbpy)PF6/K2HPO4/TRIP-SH/blue LED, DMF, 2.5 mM",48%
CC(C)C[C@@H]1NC(=O)[C@H](Cc2ccccc2)NC(=O)CCCNC(=O)[C@H](Cc2cn(C(c3ccccc3)(c3ccccc3)c3ccccc3)cn2)NC(=O)[C@H](C)NC1=O [cyclo-[Aba-Phe-Leu-Ala-His(Trt)]],"ring closure, conversion","from acryloyl-Phe-Leu-Ala-His(Trt)-Gly-OH, 17-membered ring, Ir[dF(CF3)ppy]2(dtbbpy)PF6/K2HPO4/blue LED, DMF, 1.0 mM",65%
CC(C)C[C@@H]1NC(=O)[C@H](CCC(=O)OC(C)(C)C)NC(=O)[C@@H]2CCCN2C(=O)[C@H](C)NC(=O)[C@H](Cc2ccccc2)NC(=O)CCCNC(=O)[C@H](C)NC(=O)[C@H](Cc2ccccc2)NC1=O [cyclo-[Aba-Phe-Leu-Ala-Phe]],"ring closure, conversion","from acryloyl-Phe-Ala-Pro-Glu(OtBu)-Leu-Phe-Ala-Gly-OH, 26-membered ring, Ir[dF(CF3)ppy]2(dtbbpy)PF6/K2HPO4/blue LED, DMF, 5.0 mM",61%
CC(C)C[C@@H]1NC(=O)[C@H](Cc2ccccc2)NC(=O)CCCNC(=O)[C@H](Cc2ccccc2)NC(=O)[C@H](C)NC1=O [cyclo-[Aba-Phe-Leu-Ala-Phe]],"ring closure, conversion","from acryloyl-Phe-Leu-Ala-Phe-Gly-OH, 17-membered ring, Ir[dF(CF3)ppy]2(dtbbpy)PF6/K2HPO4/blue LED, DMF, 2.5 mM",93%
CSCC[C@@H]1NC(=O)[C@H](Cc2ccccc2)NC(=O)CCCNC(=O)[C@H](CCC(=O)OC(C)(C)C)NC(=O)[C@H](CC(C)C)NC1=O [cyclo-[Aba-Phe-Met-Leu-Glu(OtBu)]],"ring closure, conversion","from acryloyl-Phe-Met-Leu-Glu(tBu)-Gly-OH, 17-membered ring, Ir[dF(CF3)ppy]2(dtbbpy)PF6/K2HPO4/TRIP-SH/blue LED, DMF, 2.5 mM",40%
C#CC[C@@H]1NC(=O)[C@H](Cc2ccccc2)NC(=O)CCCNC(=O)[C@H](CCCCNC(=O)OC(C)(C)C)NC(=O)[C@H](C)NC1=O [cyclo-[Aba-Phe-Pra-Ala-Lys(Boc)]],"ring closure, conversion","from acryloyl-Phe-Pra-Ala-Lys(Boc)-Gly-OH, 17-membered ring, Ir[dF(CF3)ppy]2(dtbbpy)PF6/K2HPO4/blue LED, DMF, 5.0 mM",82%
CC(C)[C@@H]1NC(=O)CCCNC(=O)[C@H](Cc2cn(C(=O)OC(C)(C)C)c3ccccc23)NC(=O)[C@H](Cc2ccccc2)NC(=O)[C@H]([C@@H](C)OC(C)(C)C)NC1=O [cyclo-[Aba-Val-Thr(tBu)-Phe-Trp(Boc)],"ring closure, conversion","from acryloyl-Val-Thr(tBu)-Phe-Trp(Boc)-Gly-OH, 17-membered ring, Ir[dF(CF3)ppy]2(dtbbpy)PF6/K2HPO4/blue LED, DMF, 2.5 mM",56%
C[C@@H]1NC(=O)CCCNC(=O)[C@H](Cc2ccc(OC(C)(C)C)cc2)NC1=O [cyclo-[Aha-Ala-Tyr(tBu)]],"ring closure, conversion","from acryloyl-Ala-Tyr(tBu)-Gly-OH, 11-membered ring, Ir[dF(CF3)ppy]2(dtbbpy)PF6/K2HPO4/TRIP-SH/blue LED, DMF, 1.0 mM",24%
C[C@@H]1NC(=O)[C@H](CCCNC(=NC(=O)OC(C)(C)C)NC(=O)OC(C)(C)C)NC(=O)[C@H](Cc2ccccc2)NC(=O)CCCNC(=O)[C@H](COC(C)(C)C)NC1=O [cyclo-[Aha-Phe-Arg(Bo)2-Ser(tBu)-Ala]],"ring closure, conversion","from acryloyl-Phe-Arg(Boc)2-Ala-Ser(tBu)-Gly-OH, 17-membered ring, Ir[dF(CF3)ppy]2(dtbbpy)PF6/K2HPO4/TRIP-SH/blue LED, DMF, 2.5 mM",59%
CC(C)C[C@@H]1NC(=O)[C@H](Cc2ccccc2)NC(=O)CCC(CCC(=O)O)NC(=O)[C@H](Cc2ccccc2)NC(=O)[C@H](C)NC1=O (stereo partly drawn) [cyclo-[Ahda-Phe-Leu-Ala-Phe]],"ring closure, conversion","from acryloyl-Phe-Leu-Ala-Phe-Glu-OH, 17-membered ring, Ir[dF(CF3)ppy]2(dtbbpy)PF6/K2HPO4/blue LED, DMF, 2.5 mM",38%
CC(C)C[C@@H]1NC(=O)[C@H](Cc2ccccc2)NC(=O)CCC2(CC2)NC(=O)[C@H](Cc2ccccc2)NC(=O)[C@H](C)NC1=O [cyclo[(3-Ac)pa-Phe-Leu-Ala-Phe]],"ring closure, conversion","from acryloyl-Phe-Leu-Ala-Phe-Acc-OH, 17-membered ring, Ir[dF(CF3)ppy]2(dtbbpy)PF6/K2HPO4/blue LED, DMSO, 2.5 mM",48%
CC(C)C[C@@H]1NC(=O)[C@H](Cc2ccccc2)NC(=O)CCC2(CCCC2)NC(=O)[C@H](Cc2ccccc2)NC(=O)[C@H](C)NC1=O [cyclo[(3-Aep)pa-Phe-[Leu-Aa-Phe]],"ring closure, conversion","from acryloyl-Phe-Leu-Ala-Phe-Aepe-OH, 17-membered ring, Ir[dF(CF3)ppy]2(dtbbpy)PF6/K2HPO4/blue LED, DMSO, 2.5 mM",49%
cyclo-[Aba-Ala-Leu-Pbe-Lys(Boc)-Pro-Ala-Phe-Ala-Leu-Pro-Glu(OBu)-Leu-Phe-VaI],"ring closure, conversion","47-membered ring, Ir[dF(CF3)ppy]2(dtbbpy)PF6/K2HPO4/blue LED, DMF, 0.25 mM",60%
